These results are taken from patent US9237747B2, “Herbicidal compositions comprising 4-amino-3-chloro-5-fluoro-6-(4-chloro-2-fluoro-3-methoxyphenyl) pyridine-2-carboxylic acid or a derivative thereof and insecticides” (priority 2013, dated 2016).

One assay concerns IPOHE. The class given is in vivo, Ipomoea hederacea. The procedure, abridged:
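Foliar spray, 187 L/ha, track sprayer; 1.25% v/v COC, 8.1% acetone, 0.25% DMSO in spray. Plants at 1st–4th true leaf, greenhouse 29/26 °C. Visual injury 0–100% (0 = none, 100 = complete kill) at ~3 wk after treatment; expected mixture response by Colby.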

The test system of a further assay is LEFCH. Put plainly: In-water applied weed control, transplanted paddy rice (greenhouse). The class given is in vivo, Leptochloa chinensis. The procedure:
Weed seeds or nutlets of the desired test plant species were planted in puddled soil (mud) prepared by mixing a shredded, non-sterilized mineral soil (50.5 percent silt, 25.5 percent clay, and 24 percent sand, with a pH of about 7.6 and an organic matter content of about 2.9 percent) and water at a 1:1 volumetric ratio. The prepared mud was dispensed in 365 mL aliquots into 16-ounce (oz.) non-perforated plastic pots with a surface area of 86.59 square centimeters (cm^2) leaving a headspace of 3 centimeters (cm) in each pot. Rice seeds were planted in Sun Gro MetroMix® 306 planting mixture, which typically has a pH of 6.0 to 6.8 and an organic matter content of about 30 percent, in plastic plug trays. Seedlings at the second or third leaf stage of growth were transplanted into 860 mL of mud contained in 32-oz. non-perforated plastic pots with a surface area of 86.59 cm^2 4 days prior to herbicide application. The paddy was created by filling the headspace of the pots with 2.5 to 3 cm of water. When required to ensure good germination and healthy plants, a fungicide treatment and/or other chemical or physical treatment was applied. The plants were grown for 4-22 days in a greenhouse with an approximate 14 h photoperiod which was maintained at about 29° C. during the day and about 26° C. during the night. Nutrients were added as Osmocote® (17:6:10, N:P:K+minor nutrients) at 2 grams (g) per 16-oz. pot and 4 g per 32-oz. pot. Water was added on a regular basis to maintain the paddy flood, and supplemental lighting was provided with overhead metal halide 1000-Watt lamps as necessary. The plants were employed for testing when they reached the first through fourth true leaf stage. […]
Treatment requirements for each compound or herbicidal component were calculated based upon the rates being tested, the concentration of active ingredient or acid equivalent in the formulation, an application volume of 2 mL per component per pot, and an application area of 86.59 cm^2 per pot.
For formulated compounds, a measured amount was placed in an individual 100 or 200 mL glass vial and was dissolved in a volume of 1.25% (v/v) AgriDex® crop oil concentrate to obtain application solutions. […]
The treated plants and control plants were placed in a greenhouse as described above and water was added as needed to maintain a paddy flood. After approximately 3 weeks the condition of the test plants as compared with that of the untreated plants was determined visually and scored on a scale of 0 to 100 percent where 0 corresponds to no injury or growth inhibition and 100 corresponds to complete kill. […]

Like-named read-outs stand apart in the source and are kept apart here.

With `COc1c(Cl)ccc(-c2nc(C(=O)O)c(Cl)c(N)c2F)c1F` [Compound A Acid, 4-amino-3-chloro-6-(4-chloro-2-fluoro-3-methoxyphenyl)-5-fluoropyridine-2-carboxylic acid], the “Visual Weed Control (%) - 21 DAA IPOHE Obs” value with IPOHE (5.3 g ae/ha alone) is listed as 10%; in the assay with IPOHE (10.6 g ae/ha alone), 10%; in the assay with IPOHE (21 DAA, 5.3 g ae/ha alone) it was 10%; in the assay on IPOHE (21 DAA, 10.6 g ae/ha alone) it was 10%; in the assay with IPOHE (21 DAA, 21.2 g ae/ha alone), 25%; with IPOHE (21.2 g ae/ha alone) it was 25%.

`COc1c(Cl)ccc(-c2nc(C(=O)OCc3ccccc3)c(Cl)c(N)c2F)c1F` [Compound A Benzyl Ester]: the “Visual Weed Control (%) - 19 DAA LEFCH Obs” value is recorded as 3% in the assay with LEFCH (8 g ae/ha alone), 8% with LEFCH (16 g ae/ha alone) and 10% with LEFCH (32 g ae/ha alone). For the same compound, the “Visual Weed Control (%) - 20 DAA IPOHE Obs” value in the assay on IPOHE (4.38 g ae/ha alone) is on record as 10%; with IPOHE (8 g ae/ha alone), 10%; in the assay with IPOHE (8.75 g ae/ha alone) it was 15%; in the assay with IPOHE (16 g ae/ha alone) it was 40%; in the assay with IPOHE (32 g ae/ha alone), 50%. Also, the “Visual Weed Control (%) - 21 DAA IPOHE Obs” value with IPOHE (8 g ae/ha alone) is listed as 10%; in the assay on IPOHE (16 g ae/ha alone) it was 50%; in the assay on IPOHE (21 DAA, 4.38 g ae/ha alone), 10%; in the assay with IPOHE (21 DAA, 8 g ae/ha alone), 10%; with IPOHE (21 DAA, 8.75 g ae/ha alone) it was 10%; in the assay on IPOHE (21 DAA, 17.5 g ae/ha alone), 20%. Moreover, the “Visual Weed Control (%) - 21 DAA IPOHE Obs” value in the assay on IPOHE (32 g ae/ha alone) is 60%. Also, the “Visual Weed Control (%) - 22 DAA IPOHE Obs” value in the assay with IPOHE (16 g ae/ha alone) is recorded as 10%; in the assay on IPOHE (22 DAA, 16 g ae/ha alone) it was 10%; in the assay with IPOHE (22 DAA, 32 g ae/ha alone) it was 35%; with IPOHE (32 g ae/ha alone) it was 35%. Further, the “Visual Weed Control (%) - 19 DAA IPOHE Obs” value in the assay with IPOHE (8 g ae/ha alone) was found to be 20%; with IPOHE (16 g ae/ha alone) it was 40%; with IPOHE (32 g ae/ha alone) it was 50%.

Turning to `CC(c1ccc(C(F)(F)F)nc1)S(C)(=O)=NC#N` (centres unmarked) [Sulfoxaflor, N-[methyloxido[1-[6-(trifluoromethyl)-3-pyridinyl]ethyl]-λ^4-sulfanylidene]cyanamide], the “Visual Weed Control (%) - 19 DAA LEFCH Obs” value in the assay with LEFCH (150 g ai/ha alone) was determined as 0%.
